1 substance from patent US12331121B2, “Efflux pump-cancer antigen multi-specific antibodies and compositions, reagents, kits and methods related thereto” (William Robert Arathoon Living Trust Dated August 29, 2016, priority 2019, dated 2025) can be followed below.

In experiment [1] the test system is cynomolgus RBCs. Briefly: Binding to cynomolgus erythrocytes. Particulars: FIG. 22B; in contrast to anti-CD47 5F9.
Experiment [2] relates to NALM6 ADR cells. From the text: Cells: NALM6 (ATCC) and NALM6 ADR (ATCC), B cell precursor lymphoblastic leukemia cell lines used in this study. NALM6 ADR is a multidrug resistant cell line derived from NALM6 cells.
Mice: Sixty-five 5-6-weeks-old female SCID-Beige mice (Charles River) were used in this study.
Inoculation-2×10^6 cells diluted in PBS:Matrigel (1:1) were subcutaneously injected using a 27G insulin syringe into fifty anesthetized 5-6-week-old female SCID-Beige mice under sterile conditions.
NALM6 ADR subcutaneous tumors: Mice were randomized into nine groups of five mice each—(i) Control isotype IgG1 15 mg/kg, (ii) Control isotype IgG1 15 mg/kg and 5 mg/kg of paclitaxel, (iii) Control isotype IgG1 15 mg/kg and 20 mg/kg of paclitaxel, (iv) BisP1.1 15 mg/kg, (v) BisP1.1 15 mg/kg and 5 mg/kg of paclitaxel, (vi) BisP1.1 15 mg/kg and 20 mg/kg of paclitaxel (vii) Valspodar 20 mg/kg (viii) Valspodar 20 mg/kg and 5 mg/kg of paclitaxel and (ix) Valspodar 20 mg/kg and […]. Antibody, Valspodar and paclitaxel were dosed intraperitoneally twice a week for four consecutive weeks. Antibody/valspodar were injected at least 4 hours prior to paclitaxel injection. Paclitaxel preparation: Since paclitaxel is poorly soluble, a master stock of 50 mg/ml was prepared in absolute ethanol:Kolliphor (1:1). Prior to injection the stock was diluted to recommended doses of 5 mg/kg or 20 mg/kg with PBS maintaining a ratio of (1:16).
Measurements: Tumor measurements were done thrice a week using a calibrated Vernier Caliper and tumor volume calculated as per the formula ½*L*S*S where L is the long axis and s is the short axis of the tumor. Body weights were recorded before treatment started and were continuously monitored throughout the study. Animal survival was evaluated from the first day of treatment until death. To avoid suffering, mice were euthanized when turning moribund according to the above-mentioned predefined criteria: rapid weight loss, loss of ability to ambulate, labored respiration, or inability to drink or feed.
Statistics: Tumor volume and body weights were compared between different experimental groups using exact one-way analysis of variance (ANOVA). Kaplan-Meier survival curves were compared between different treatment groups using the log-rank (Mantel-Cox) test. Statistical analyses were performed using Graph Pad Prism (GraphPad, San Diego, CA, USA) software. The level of significance was set at p<0.05 for all analyses.

Consider “KBisP1.1: bispecific anti-MDR1/anti-CD47 antibody: 15D3 heavy chain, 5F9 (KT14) heavy chain, common MRK16 light chain, human IgG1”, for which, in experiment [1], the “binding to cynomolgus erythrocytes” value is on record as “no significant binding”. Moreover, the “tumor growth, agent alone” value in experiment [2] (15 mg/kg i.p. twice a week) is listed as “strong inhibition of tumor growth”. Besides, the “tumor growth in combination with paclitaxel” value in experiment [2] (BisP1.1 15 mg/kg or valspodar 20 mg/kg with paclitaxel 5 or 20 mg/kg) is on record as “significantly reduced tumor growth”. In addition, the survival entry in experiment [2] (valspodar with paclitaxel 20 mg/kg, BisP1.1 alone or plus paclitaxel, compared to control) is recorded as “prolonged survival”.
